This is an account of results in ChEMBL document CHEMBL4406832, “Discovery of novel series of 2-substituted benzo[d]oxazol-5-amine derivatives as multi-target directed ligands for the treatment of Alzheimer's disease” (Eur J Med Chem, 2019).

Structures are written as SMILES. Calls of active or inactive are those of the source. The calls are words filed in the database; no cut-off is given here.

For orientation: Ki means a dissociation constant, usually derived from enzyme kinetics or from competition with a known ligand. High values mean lower affinity, low ones higher affinity. A word on the IC50: it is the concentration that gives 50% inhibition. A high value points to lower potency. A word on the Papp: it is a coefficient for how fast a substance crosses the barrier. Read a high Papp as fast passage.

For data set [1], the target named is T1, Amyloid-beta precursor protein (Homo sapiens, UniProt P05067). The experiment in a line: Displacement of [125I]IMPY from human amyloid beta(1-42) aggregates incubated for 3 hrs by gamma counting analysis. (In a radioligand displacement assay an active substance lowers the binding of a labelled ligand.)
Data set [2] addresses Acetylcholinesterase (Electrophorus electricus) (UniProt O42275). The experiment in a line: Non-competitive inhibition of electric eel AChE assessed as decrease in Vmax at 25 to 75 nM using varying levels of acetylthiocholine iodide as substrate measured every 2 mins for 10 mins by reciprocal Lineweaver-Burk plot analysis.
The target in data set [3] is T2, Acetylcholinesterase (Electrophorus electricus, UniProt O42275). The experiment in a line: Inhibition of electric eel AChE using acetylthiocholine iodide as substrate preincubated with enzyme for 30 mins followed by substrate addition and measured for 1 min by DTNB reagent-based spectrophotometric analysis.
The target of data set [4] is T3, Cholinesterase (Equus caballus, UniProt P81908). The data set can be described thus: Inhibition of equine serum BuChE using butyrylthiocholine iodide as substrate preincubated for 30 mins followed by substrate addition and measured for 1 min by DTNB reagent-based spectrophotometric analysis.
A short description of data set [5]: Selectivity index, ratio of IC50 for equine serum BuChE to IC50 for electric eel AChE.
A short description of data set [6]: Permeability of the compound in pH 7.4 PBS buffer incubated for 18 hrs by PAMPA-BBB assay. On the technique in general: In PAMPA a lipid-coated filter parts donor from acceptor wells.
In data set [7] the target is Acetylcholinesterase (Electrophorus electricus) (UniProt O42275). The experiment in a line: Non-competitive inhibition of electric eel AChE assessed as decrease in Km at 25 to 75 nM using varying levels of acetylthiocholine iodide as substrate measured every 2 mins for 10 mins by reciprocal Lineweaver-Burk plot analysis.
Data set [8] has as its target Cholinesterase (Equus caballus) (UniProt P81908). The data set can be described thus: Non-competitive inhibition of equine serum BuChE assessed as decrease in Vmax at 0.5 to 1.5 uM using varying levels of butyrylthiocholine iodide as substrate measured every 2 mins for 10 mins by reciprocal Lineweaver-Burk plot analysis.
Data set [9] shares this target. The data set can be described thus: Non-competitive inhibition of equine serum BuChE assessed as decrease in Km at 0.5 to 1.5 uM using varying levels of butyrylthiocholine iodide as substrate measured every 2 mins for 10 mins by reciprocal Lineweaver-Burk plot analysis.
Data set [10] addresses T2, Acetylcholinesterase. The data set can be described thus: Non-competitive inhibition of electric eel AChE using varying levels of acetylthiocholine iodide as substrate measured at 2 mins interval for 10 mins by Dixon plot analysis.
Data set [11] deals with T3, Cholinesterase. The experiment in a line: Non-competitive inhibition of equine serum BuChE using varying levels of butyrylthiocholine iodide as substrate measured at 2 mins interval for 10 mins by Dixon plot analysis.
The target of data set [12] is T1, Amyloid-beta precursor protein. The data set can be described thus: Inhibition of human amyloid beta (1 to 42) self-induced aggregation at 5 to 20 uM after 48 hrs by Thioflavin T based fluorometric assay.
For data set [13], the target named is Acetylcholinesterase (Electrophorus electricus) (UniProt O42275). The data set can be described thus: Inhibition of electric eel AChE-induced amyloid beta (1 to 42) aggregation at 5 to 20 uM after 48 hrs by thioflavin T-based fluorometric assay.
For data set [14], the system named is SH-SY5Y. The experiment in a line: Neuroprotective activity against amyloid beta (1 to 42)-induced cytotoxicity in human SH-SY5Y cells assessed as increase in cell viability at 10 to 20 uM measured after 72 hrs by MTT assay. It is filed as functional, cell-based.
Data set [15] has as its system SH-SY5Y. The data set can be described thus: Neuroprotective activity against amyloid beta (1 to 42)-induced cytotoxicity in human SH-SY5Y cells assessed as increase in cell viability at 40 to 80 uM measured after 72 hrs by MTT assay. It counts as functional, cell-based.
Data set [16] can be described thus: Acute toxicity in Wistar rat assessed as animal death measured for 72 hrs by OCED guideline method. The settings on record: in vivo.
Data set [17] in a line: Toxicity in Wistar rat assessed as change in body weight at 300 mg/kg measured for 72 hrs. The settings on record: in vivo. It counts as organism-based.
The species named for data set [18] is Rattus norvegicus. The data set can be described thus: Ex vivo inhibition of AChE in brain of scopolamine-induced Wistar rat model of amnesia pretreated for 7 days followed by scopolamine challenge and measured after 30 mins using acetylthiocholine iodide as substrate by Ellman's method. It is filed as functional, organism-based.
Data set [19] has as its system Rattus norvegicus. The experiment in a line: Improvement in learning and spatial memory in icv infused amyloid beta (1 to 42)-induced Wistar rat model of Alzheimer's disease assessed as increase in number of platform crossing at 10 mg/kg, po administered daily for 7 days starting from 7 days post surgery and measured after 6 days by Morris water maze test. It is filed as functional, organism-based.

Data set [20] concerns Rattus norvegicus. The data set can be described thus: Improvement in learning and spatial memory in icv infused amyloid beta (1 to 42)-induced Wistar rat model of Alzheimer's disease assessed as reduction in escape latency at 10 mg/kg, po administered daily for 7 days starting from 7 days post surgery and measured daily for 5 days by Morris water maze test. It counts as functional, organism-based.

Data set [21] deals with Rattus norvegicus. The experiment in a line: Improvement in learning and spatial memory in icv infused amyloid beta (1 to 42)-induced Wistar rat model of Alzheimer's disease assessed as increase in time spent in platform zone at 10 mg/kg, po administered daily for 7 days starting from 7 days post surgery and measured after 6 days by Morris water maze test. It is filed as functional, organism-based.

Data set [22] concerns Rattus norvegicus. The experiment in a line: Improvement in learning and spatial memory in icv infused amyloid beta (1 to 42)-induced Wistar rat model of Alzheimer's disease assessed as reduction in degeneration of neuron in hippocampal region at 10 mg/kg, po administered daily for 7 days starting from 7 days post surgery and measured after 6 days by H and E staining-based microscopic analysis. It counts as functional, organism-based.

Data set [23] concerns Rattus norvegicus. The experiment in a line: Improvement in learning and spatial memory in icv infused amyloid beta (1 to 42)-induced Wistar rat model of Alzheimer's disease assessed as reduction in disordered neuron in hippocampal region at 10 mg/kg, po administered daily for 7 days starting from 7 days post surgery and measured after 6 days by H and E staining-based microscopic analysis. It counts as functional, organism-based.

For data set [24], the species on record is Rattus norvegicus. The data set can be described thus: Cognitive enhancing effect in scopolamine-induced Wistar rat model of amnesia assessed as increase in spontaneous alteration pretreated for 7 days followed by scopolamine challenge and measured after 30 mins by Y-maze test. It is filed as functional, organism-based.

Acetylcholinesterase (Electrophorus electricus), sequence (O42275 24-633 limits assumed): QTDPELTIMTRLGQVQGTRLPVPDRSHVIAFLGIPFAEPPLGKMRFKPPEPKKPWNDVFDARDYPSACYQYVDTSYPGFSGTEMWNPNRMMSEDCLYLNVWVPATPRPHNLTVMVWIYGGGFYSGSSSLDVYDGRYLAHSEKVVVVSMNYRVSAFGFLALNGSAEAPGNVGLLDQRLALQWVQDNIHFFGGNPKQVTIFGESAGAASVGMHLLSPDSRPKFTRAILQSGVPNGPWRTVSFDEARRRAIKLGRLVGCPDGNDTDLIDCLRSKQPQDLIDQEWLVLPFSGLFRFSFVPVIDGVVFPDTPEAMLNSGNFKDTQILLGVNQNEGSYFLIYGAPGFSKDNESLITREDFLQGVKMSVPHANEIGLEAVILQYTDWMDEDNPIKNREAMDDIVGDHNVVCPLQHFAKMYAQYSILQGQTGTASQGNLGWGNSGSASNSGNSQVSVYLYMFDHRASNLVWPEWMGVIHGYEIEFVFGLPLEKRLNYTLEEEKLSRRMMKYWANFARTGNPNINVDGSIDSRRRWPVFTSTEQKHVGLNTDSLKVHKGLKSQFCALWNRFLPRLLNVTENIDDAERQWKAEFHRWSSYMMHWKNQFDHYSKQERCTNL
T2 sequence (O42275 whole entry): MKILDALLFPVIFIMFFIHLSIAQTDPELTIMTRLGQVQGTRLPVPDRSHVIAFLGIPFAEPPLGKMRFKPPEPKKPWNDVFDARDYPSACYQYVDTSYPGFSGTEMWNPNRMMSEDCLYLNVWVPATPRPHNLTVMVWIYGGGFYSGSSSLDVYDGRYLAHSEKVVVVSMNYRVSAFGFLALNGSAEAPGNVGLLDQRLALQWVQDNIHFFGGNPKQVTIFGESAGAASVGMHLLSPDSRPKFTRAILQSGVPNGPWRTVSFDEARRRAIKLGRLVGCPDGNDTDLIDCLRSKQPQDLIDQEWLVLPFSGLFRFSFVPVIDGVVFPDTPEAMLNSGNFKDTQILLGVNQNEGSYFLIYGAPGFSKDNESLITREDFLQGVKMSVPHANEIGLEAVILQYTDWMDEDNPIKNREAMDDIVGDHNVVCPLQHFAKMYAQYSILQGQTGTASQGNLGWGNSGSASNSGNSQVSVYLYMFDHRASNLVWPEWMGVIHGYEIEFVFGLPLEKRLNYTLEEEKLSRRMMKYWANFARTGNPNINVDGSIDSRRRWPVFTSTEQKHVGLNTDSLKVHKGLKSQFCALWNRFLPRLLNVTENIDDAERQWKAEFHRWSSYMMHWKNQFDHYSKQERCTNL
T3 sequence (P81908 whole entry): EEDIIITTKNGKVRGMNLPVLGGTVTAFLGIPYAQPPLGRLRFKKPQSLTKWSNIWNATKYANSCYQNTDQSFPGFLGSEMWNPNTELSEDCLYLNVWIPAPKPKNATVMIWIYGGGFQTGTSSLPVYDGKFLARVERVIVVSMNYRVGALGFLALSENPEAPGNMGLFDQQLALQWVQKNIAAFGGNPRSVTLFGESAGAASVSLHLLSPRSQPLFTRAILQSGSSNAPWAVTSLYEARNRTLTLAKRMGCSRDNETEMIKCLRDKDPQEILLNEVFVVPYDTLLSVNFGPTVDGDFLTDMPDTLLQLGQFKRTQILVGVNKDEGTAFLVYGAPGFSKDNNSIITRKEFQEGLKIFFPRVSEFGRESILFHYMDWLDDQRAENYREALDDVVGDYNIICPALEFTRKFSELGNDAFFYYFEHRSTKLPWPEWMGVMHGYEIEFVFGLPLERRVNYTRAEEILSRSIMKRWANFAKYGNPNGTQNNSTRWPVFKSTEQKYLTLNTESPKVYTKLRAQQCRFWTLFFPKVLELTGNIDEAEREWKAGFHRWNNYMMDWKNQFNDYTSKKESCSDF
Cholinesterase (Equus caballus), sequence (P81908 whole entry): as above
T1 sequence (P05067 whole entry): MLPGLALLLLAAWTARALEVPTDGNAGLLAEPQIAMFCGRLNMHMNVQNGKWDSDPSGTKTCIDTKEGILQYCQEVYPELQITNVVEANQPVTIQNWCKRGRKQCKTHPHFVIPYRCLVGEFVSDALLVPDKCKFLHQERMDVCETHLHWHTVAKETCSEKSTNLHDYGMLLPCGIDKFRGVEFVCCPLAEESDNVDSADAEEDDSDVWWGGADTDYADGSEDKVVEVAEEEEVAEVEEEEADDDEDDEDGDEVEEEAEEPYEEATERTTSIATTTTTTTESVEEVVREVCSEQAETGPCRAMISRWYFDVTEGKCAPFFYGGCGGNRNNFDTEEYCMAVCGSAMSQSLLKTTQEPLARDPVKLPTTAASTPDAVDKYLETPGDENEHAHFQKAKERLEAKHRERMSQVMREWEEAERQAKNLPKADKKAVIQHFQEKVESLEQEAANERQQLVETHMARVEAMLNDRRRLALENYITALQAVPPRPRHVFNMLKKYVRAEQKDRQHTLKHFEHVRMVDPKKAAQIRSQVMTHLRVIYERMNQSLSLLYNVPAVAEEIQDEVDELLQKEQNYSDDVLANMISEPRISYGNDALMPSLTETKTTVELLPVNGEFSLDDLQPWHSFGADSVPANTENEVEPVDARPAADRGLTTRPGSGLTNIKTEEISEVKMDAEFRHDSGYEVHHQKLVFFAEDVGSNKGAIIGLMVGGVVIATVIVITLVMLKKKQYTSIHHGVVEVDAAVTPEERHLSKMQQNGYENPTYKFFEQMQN

`CN(C)c1ccc(-c2nc3cc([125I])ccc3o2)cn1`: the Ki in data set [1] turned out to be 6.9 nM.

`Nc1ccc2oc(N3CCN(C(=O)c4ccc(Br)cc4)CC3)nc2c1`: the inhibition entry in data set [2], in data set [7], in [8], in data set [9], in data set [12] and in data set [13] was “Active” in each case. The values for the IC50 against Acetylcholinesterase [3] and against Cholinesterase [4] were 52 nM and 1080 nM, respectively. Also, the Ratio IC50 in [5] stood at 20.8. This molecule also displayed a Papp at 18 h in data set [6] of 10.8 ×10⁻⁶ cm/s. For the same molecule, the values for the Ki on Acetylcholinesterase [10] and on Cholinesterase [11] were 30 nM and 860 nM, respectively. Besides, the outcome in the data set with SH-SY5Y [14] was inactive. In addition, the outcome in the data set on SH-SY5Y [15], in the data set with Rattus norvegicus [19], in the data set with Rattus norvegicus [20], with Rattus norvegicus [21], in the data set on Rattus norvegicus [22] and in the data set on Rattus norvegicus [23] was Active. Further, the Activity entry in data set [16] was “Toxic”; in data set [17], “Toxic”; in the data set listed under Rattus norvegicus [24], “Dose-dependent effect”. For the same molecule, the inhibition result in the data set filed under Rattus norvegicus [18] is “Dose-dependent effect”.
